Patent US7365049B2, “Afamin-containing compositions and methods of use” (Vitateg Biotechnology GmbH, priority 2001, dated 2008)
Entries after “also recorded” stand apart in the source; their conditions may differ.

B1: Afamin: 87 kDa protein which belongs to the albumin group; cloned and sequenced, also available in recombinant form (protein, UniProt P43652 22-599, looked up)
Afamin: LPTQPRDIENFNSTQKFIEDNIEYITIIAFAQYVQEATFEEMEKLVKDMVEYKDRCMADKTLPECSKLPNNVLQEKICAMEGLPQKHNFSHCCSKVDAQRRLCFFYNKKSDVGFLPPFPTLDPEEKCQAYESNRESLLNHFLYEVARRNPFVFAPTLLTVAVHFEEVAKSCCEEQNKVNCLQTRAIPVTQYLKAFSSYQKHVCGALLKFGTKVVHFIYIAILSQKFPKIEFKELISLVEDVSSNYDGCCEGDVVQCIRDTSKVMNHICSKQDSISSKIKECCEKKIPERGQCIINSNKDDRPKDLSLREGKFTDSENVCQERDADPDTFFAKFTFEYSRRHPDLSIPELLRIVQIYKDLLRNCCNTENPPGCYRYAEDKFNETTEKSLKMVQQECKHFQNLGKDGLKYHYLIRLTKIAPQLSTEELVSLGEKMVTAFTTCCTLSEEFACVDNLADLVFGELCGVNENRTINPAVDHCCKTNFAFRRPCFESLKADKTYVPPPFSQDLFTFHADMCQSQNEELQRKTDRFLVNLVKLKHELTDEELQSLFTNFANVVDKCCKAESPEVCFNEESPKIGN

What was measured:
[1] = test system: isolated cortical neurons of chicken embryos; assay: H2O2-lesion assay, MTT viability of isolated cortical neurons; format: cell-based; settings: 100 μM H2O2 for 24 h, FIG. 2b
Procedure: After the low serum assay or the lesion assay, the MTT assay is used to check the viability of neuronal cells (MTT=3-(4,5-dimethylthiazol-2-yl)-2,5-diphenyltriazolium bromide).
The neuronal viability of cells in vitro can be determined by means of this calorimetric MTT test. The MTT assay is based on the metabolic reduction of MTT, a substance of yellow color, to dark-blue formazane crystals by mitochondrial dehydrogenases (e.g. succinate dehydrogenase). The crystals are dissolved, and the spectrometric absorption is measured at a suitable wave length.
The neurons were prepared by breaking ethanoltreated eggs and putting the embryos into a plastic dish. After decapitation, the hemispheres were removed and collected. Loose tissue and meningial membranes were removed, and the hemispheres were mechanically dissociated.
80 μl cell suspension containing 6×10^5 cells/ml nutrient medium were added to each well of the microtiter plate which already contained 80 μl of medium with or without the substances. The plates were kept at 37° C., 95% humidity and 5% CO2 without a change of media (up to 8 DIV).
The low serum medium contains 100 ml of DEMEM with 1 g of glucose/l, 2% fetal calf serum, 0.01% Gentamycin and 2 mM L-glutamine. The nutrient medium for the lesion assays contains 100 ml of DMEM with 4.5 g of glucose/l, 5% fetal calf serum, 0.01% gentamycin and 2 mM L-glutamine.
At DIV 8, the cells were treated with 20 μM of pre-aggregated β-amyloid peptide (Aβ25-35; Sigma) for 72 hours, or with 100 μM H2O2 for 24 h.

[2] = test system: isolated cortical neurons of chicken embryos; assay: Low serum assay (2% serum), MTT viability of isolated cortical neurons; format: cell-based; settings: partial serum withdrawal to 2%, FIG. 2a
Procedure: (§1) The neuroprotective effect of Afamin was examined by assaying isolated cortical neurons of chicken embryos. The effect of Afamin was tested in a low-serum assay and in two lesion assays, namely in a β-amyloid and a H2O2-lesion assay.
(§2) After the low serum assay or the lesion assay, the MTT assay is used to check the viability of neuronal cells (MTT=3-(4,5-dimethylthiazol-2-yl)-2,5-[…]). This is a suitable model which is extremely reproducible. The test also allows for assaying a large number of samples, and dose-dependent differences in the activity of a substance can be evaluated.
(§3) The neuronal viability of cells in vitro can be determined by means of this […] MTT test. The MTT assay is based on the metabolic reduction of MTT, a substance of yellow color, to dark-blue formazane crystals by mitochondrial dehydrogenases (e.g. succinate dehydrogenase). The crystals are dissolved, and the spectrometric absorption is measured at a suitable wave length.
(§4) In detail, isolated cortical neurons of 8- (lesion assays) or 9- (low serum assay) day-old chicken embryos (White Leghorn or Lohman Brown Hybrid strain) were used.
(§5) The neurons were prepared by breaking ethanoltreated eggs and putting the embryos into a plastic dish. […]
(§6) At the end of each experiment, the viability of the cultures was tested by means of the MTT assay with a plate reader at 570 nm.

Afamin = target: T1, Afamin (Homo sapiens, UniProt P43652); assay: Scatchard-plot analysis of the binding of vitamin E to Afamin; settings: FIG. 3
T1 sequence (P43652 22-599): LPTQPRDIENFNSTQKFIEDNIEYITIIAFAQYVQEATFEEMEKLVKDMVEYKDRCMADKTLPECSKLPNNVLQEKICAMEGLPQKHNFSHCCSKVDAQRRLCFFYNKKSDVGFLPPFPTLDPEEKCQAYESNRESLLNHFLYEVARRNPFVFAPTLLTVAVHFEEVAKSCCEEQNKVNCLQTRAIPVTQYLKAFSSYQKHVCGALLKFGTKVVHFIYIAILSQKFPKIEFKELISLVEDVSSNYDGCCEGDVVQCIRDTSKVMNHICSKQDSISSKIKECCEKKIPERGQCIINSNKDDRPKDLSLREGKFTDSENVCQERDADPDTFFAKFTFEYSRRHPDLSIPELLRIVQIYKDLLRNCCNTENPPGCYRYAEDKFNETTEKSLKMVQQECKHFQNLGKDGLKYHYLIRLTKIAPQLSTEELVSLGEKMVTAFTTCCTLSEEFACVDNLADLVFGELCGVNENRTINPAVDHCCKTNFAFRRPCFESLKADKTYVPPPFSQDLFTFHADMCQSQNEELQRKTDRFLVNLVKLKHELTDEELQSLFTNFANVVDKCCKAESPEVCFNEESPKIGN

[3] = test system: isolated cortical neurons of chicken embryos; assay: β-amyloid lesion assay, MTT viability of isolated cortical neurons; format: cell-based; settings: 20 μM pre-aggregated β-amyloid peptide (Aβ25-35) for 72 hours, FIG. 2c
Procedure: as §1, §2, §3, §4, §5, §6

[4] = test system: glutamine synthetase (GS); assay: 3-NP-induced reduction of glutamine synthetase (GS) activity in brain spheroids; format: cell-based; settings: 5-day treatment with 3-NP (0.5 and 5 mM), Afamin 0.3 and 3 μg/ml without vitamin E, FIG. 1
Excerpt: Because of the mechanistic and pathological similarities between 3-NP lesions and Hungington's Disease (HD), 3-NP has been proposed as an alternative HD-model. Malonate and 3-NP are inhibitors of the succinate dehydrogenase which produce an energy loss and lesions which are similar to those observed in HD. Systemic administration of 3-NP causes a progressive locomotory deterioration which corresponds to that of HD.
After the extraction of brain spheroids and a one-week culturing, D,L-alpha-tocopherol (0.1 mM) were added to the medium. Two weeks old spheroids were plated in a plate having six wells. Shortly after the exposure, the medium was replaced by 2 ml of fresh medium. The spheroids were exposed to 3-NP (0.5 and 5 mM, pH adjusted to 7 to 8), or to the protectors vitamin E (0.1 mM), glutathione (1 mM), DTT (0.25 mM), L-NAME (N(G)-nitro-L-[…]-methylester) (0.1 mM), Afamin (without vitamin E (0.3 and 3 μg/ml) or combinations of 3-NP with the protectors for 5 days. After 2 days, freshly prepared 3-NP and protectors were added to the medium (Mathews et al., J. Neurosci, 18(1) (1998), 156-163); Borlongan et al., Neurosci Biohav. Res. 21(3) (1997), 289-293).
The results are illustrated in FIG. 1. […] As mentioned before, this system with 3NP constitutes a recognized model for excitotoxicity and serves as a model for Huntington's Disease.

Molecule	reduction of damage / neuronal cell death by H2O2 [1]	reduction of apoptosis / neuronal cell death in low serum medium [2]	theoretical maximum loading of an Afamin molecule (Afamin)	reduction of damage / neuronal cell death by β-amyloid peptide [3]	protection of glutamine synthetase activity against inactivation by 3NP [4]
Cc1c(C)c2c(c(C)c1O)CCC(C)(CCCC(C)CCCC(C)CCCC(C)C)O2 [vitamin E, D,L-alpha-tocopherol, reference compound]	capable of reducing	capable of reducing the apoptosis	18 molecules of vitamin E	capable of reducing	
B1	protects against neuronal cell death; also recorded: capable of reducing	protects against neuronal cell death; also recorded: capable of reducing the apoptosis		protects against neuronal cell death; also recorded: capable of reducing	by far the highest effect of all the tested substances
